Entries after “also recorded” stand apart in the source; their conditions may differ.
Legend:
Type in all cases: in vivo
E. coli CFT073 [1] = experiment: Irf7 siRNA therapy given before intravesical E. coli CFT073 infection of susceptible Irf3−/− mice (Example 3)
Protocol: Anesthetized mice (Isofluoran) were infected by intravesical inoculation with E. coli CFT073 (10^8 CFU in 0.1 mL) as described (Hagberg et al., Infection and immunity (1983) 40, 273-283). Overnight static cultures of E. coli CFT073 in Luria broth were used for animal inoculations.
Animals were sacrificed after 7 days under anesthesia, kidneys were aseptically removed and macroscopic pathology was documented by photography. Tissues were divided for RNA extraction (on dry ice), histology and immunostaining (in O.C.T. compound, VWR) and frozen in separate vials at −80° C. Infection was assessed by viable counts of homogenized whole kidney (in 5 mL PBS). Urine samples were collected prior to and at regular times after infection and quantitatively cultured. Neutrophil numbers were quantified in uncentrifuged urine by use of a hemocytometer.
siRNA therapy was used to confirm the role of Irf7 in pathology. Irf3^−/− mice were subjected to siRNA treatment at a dose of 5 mg/kg. A dose (300 μL) of Silencer Select Pre-designed Irf7 siRNA (Life Technologies, 4404010 #s79411) was injected into the tail vein (200 μL) and intravesically (100 μL), three days prior to and on the day of infection with Invivofectamine reagent (Life Technologies, 1377501) (FIG. 5A). The siRNA used was as follows:
(§1) Ambion In Vivo Negative Control siRNA was given as a control (Life Technologies, 4457287). For transcriptomic analysis, total RNA was isolated from the kidney of Irf3^−/− mice using mirVana miRNA Isolation Kit (Ambion by Life Technologies) followed by organic extraction using Acid-Phenol:Chloroform. The analysis was done in-house using Mouse Genome 430 PM array strips and GeneAtlas system (Affymetrix).
After 7 days following infection, mice were sacrificed. The disease phenotype was defined by macroscopic kidney pathology, number of abscesses, bacterial counts in urine and kidneys, urine neutrophil numbers and tissue imaging (FIGS. 5B and 5D). Irf7 siRNA-treated mice were compared to infected controls receiving irrelevant siRNA with Invivofectamine® or no treatment.

IRF-7 = experiment: Immunohistochemistry of IRF-7 in renal pelvic mucosa of siRNA treated mice; conditions: Irf3−/− mice, 7 days after infection
STAT3 = experiment: Immunohistochemistry of submucosal STAT3 in kidneys of siRNA treated mice; conditions: Irf3−/− mice, 7 days after infection
[2] = system: pro-inflammatory genes and pathology network genes; experiment: Whole genome transcriptomic analysis of kidneys from Irf7 siRNA treated mice
Source text: as §1

E. coli CFT073 [3] = experiment: Treatment of Irf3−/− mice after intravesical E. coli CFT073 infection: Irf7 siRNA compared with antibiotic therapy (Example 5); conditions: for number (frequency) of abscesses: siRNA intravenously and intravesically 24 hours and 4 days after infection, vs untreated
Protocol: Irf7 siRNA treatment was compared with antibiotic therapy. Groups of 6 Irf3^−/− mice were treated intravenously and intravesically with siRNA as described in Example 3, 24 hours and 4 days after intravesical infection with E. coli CFT073. The 24 hour time point corresponds to the time of acute symptoms, when patients are first diagnosed with febrile urinary tract infection (UTI) and treatment is initiated.
Also at that time, and following infection with E. coli CFT073, Irf3 mice were treated with the third-generation cephalosporin broad-spectrum antibiotic, Cefotaxime (STRAGEN Nordic A/S) at a dose of 100 or 400 mg/kg body weight. Cefotaxime was given by intraperitoneal injection twice a day for 6 days starting 24 hours after infection.
After 7 days, the mice were sacrificed, and kidney pathology and inflammation as quantified by neutrophil numbers in urine was assessed. Bacterial clearance was also assessed in SiRNA treated mice by measuring bacterial counts in urine. The results are shown in FIGS. 9A-E and 10A-D respectively.

[4] = Irf3−/− mice, siRNA 5 mg/kg three days prior to and on the day of infection, 7 days after infection
[5] = immunohistochemistry 7 days after infection, vs negative control siRNA treated or untreated Irf3−/− mice
[6] = kidneys of Irf7 siRNA treated Irf3−/− mice infected with CFT073 vs untreated controls
[7] = abscesses, 7 days after infection
[8] = siRNA 24 hours and 4 days after infection, 7 days
[9] = Cefotaxime 100 or 400 mg/kg intraperitoneal twice a day for 6 days starting 24 hours after infection, 7 days

Irf7 siRNA: Silencer Select Pre-designed Irf7 siRNA (Life Technologies, 4404010 #s79411); sense GUGUUUACGAGGAACCCUAtt, antisense UAGGGUUCCUCGUAAACACgg; delivered with Invivofectamine (sense GUGUUUACGAGGAACCCUATT; antisense UAGGGUUCCUCGUAAACACGG; chemistry not given here)
macroscopic kidney pathology and tissue damage (E. coli CFT073 [1]; Irf3−/− mice, siRNA 5 mg/kg tail vein + intravesically, three days prior to and on the day of infection, 7 days after infection, vs irrelevant siRNA or untreated): Reduction | bacterial counts in urine and renal tissue (E. coli CFT073 [1]; [4]): reduction; also recorded: lower | neutrophil recruitment (neutrophil numbers in urine) (E. coli CFT073 [1]; [4]): reduction; also recorded: reduced | frequency of abscesses (E. coli CFT073 [1]; Irf3−/− mice, siRNA three days prior to and on the day of infection, 7 days after infection, n=3-8): reduced | bacterial staining, frozen kidney tissue sections (E. coli CFT073 [1]; [5]): markedly reduced | neutrophil staining, frozen kidney tissue sections (E. coli CFT073 [1]; [5]): markedly reduced | mucosal IRF-7 expression (staining) in renal pelvic mucosa (IRF-7): Suppression; also recorded: Inhibition | mucosal IRF-7 expression (staining) in renal pelvic mucosa (IRF-7; listed as siRNA): Reduced | submucosal STAT3 staining (STAT3): reduced; also recorded: inhibited | pathology-associated gene expression ([2]; Irf7 siRNA treated mice, as stated in Example 5): absence | Tlr4 expression [2, 6]: activated | expression of pro-inflammatory genes and transcriptional regulators (chemokines, Irf7, Stat3, Jun) [2, 6]: suppressed | transcript levels overall and of pathology-associated genes (Stat3, S100a8, Cxcl2, Junb) ([2]; kidneys of siRNA treated Irf3−/− mice): suppressed | effect compared with 100 mg/kg of Cefotaxime (E. coli CFT073 [3]; [7]): similar | effect compared with 400 mg/kg of Cefotaxime (E. coli CFT073 [3]; [7]): lower | bacterial counts in urine (bacterial clearance) (E. coli CFT073 [3]; [8]): lower | neutrophil numbers in urine (magnitude of the neutrophil infiltrate) (E. coli CFT073 [3]; [8]): reduced | neutrophil numbers in urine (magnitude of the neutrophil infiltrate) (E. coli CFT073 [3]; siRNA 24 hours and 4 days after infection, 7 days, listed as SiRNA): significantly reduced | number (frequency) of abscesses (E. coli CFT073 [3]; 7 days after infection): reduced | number (frequency) of abscesses (E. coli CFT073 [3]; 7 days after infection, listed as SiRNA): significantly reduced

CO/N=C(\C(=O)N[C@@H]1C(=O)N2C(C(=O)O)=C(COC(C)=O)CS[C@H]12)c1csc(N)n1 [Cefotaxime, reference compound]
frequency of abscesses (E. coli CFT073 [3]; [9]): reduced | neutrophil numbers in urine (inflammation) (E. coli CFT073 [3]; [9]): reduced
